Experimental data from US20230159510A1, “NOVEL PRMT5 INHIBITORS” (AMGEN INC., priority 2020, published 2023).

Experiments:
[1] = tested on: HCT116 WT cells; assay: HCT116 proliferation assay, WT cells (CellTiter-Glo, 6 days); assay type: cell-based; conditions: Homo sapiens, HCT-116, 144 h, read-out: Prolif_HCT116-WT IC50
Protocol: (§1) HCT116 MTAP null and WT cells were seeded in 96-well tissue culture plates in RPMI 1640 media + 10% fetal bovine serum. Plates were incubated overnight at 37° C. and 5% CO2. Cells were then treated with a 8- or 9-point serial dilution of compound, using a top concentration of 1 or 10 µM, 1:3 serial dilution steps and, a DMSO-only control. Cells were incubated in the presence of drug for 6 days. Effects on cell viability were measured with the CellTiter-Glo® Luminescent Cell Viability Assay (Promega) per manufacturer’s recommendation. Assay plates were read on an EnVision™ Multilabel Reader using the Ultra-Sensitive luminescence module.

[2] = tested on: HCT116 MTAP null cells; assay: HCT116 proliferation assay, MTAP null cells (CellTiter-Glo, 6 days); assay type: cell-based; conditions: HCT116-MTAP null, 144 h, read-out: Protif_ HCT116-MTAP null IC50
Protocol: as §1

| IC50 [1] | IC50 [2] | SMILES |
| --- | --- | --- |
| 2.05 µM | 72 nM | N#CC[C@@H](C1CC1)N(Cc1ccc(C(F)(F)F)cn1)C(=O)c1ccc2nc(N)c(Br)cc2c1 [Example 778, (S)-2-amino-3-bromo-N-(2-cyano-1-cyclopropylethyl)-N-((5-(trifluoromethyl)pyridin-2-yl)methyl)quinoline-6-carboxamide] |
| 1.72 µM | 60 nM | Cc1cc2cc(C(=O)N(Cc3ccc(OC(F)(F)F)nn3)C(C)c3ncccn3)ccc2nc1N (stereo not drawn) [Example 791, 2-amino-3-methyl-N-(1-(pyrimidin-2-yl)ethyl)-N-((6-(trifluoromethoxy)pyridazin-3-yl)methyl)quinoline-6-carboxamide] |
| > 1 µM | 549 nM | Cc1cc2cc(C(=O)N(Cc3ccc4[nH]c(=O)[nH]c4c3)Cc3ccnc4[nH]ccc34)ccc2nc1N [Example 589, N-((1H-pyrrolo[2,3-b]pyridin-4-yl)methyl)-2-amino-3-methyl-N-((2-oxo-2,3-dihydro-1H-benzo [d]imidazol-5-yl)methyl)quinoline-6-carboxamide] |
| > 10 µM | 337 nM | Nc1nc2ccc(C(=O)N(Cc3ccc(Br)nn3)[C@@H]3CCCn4ncnc43)cc2cc1Br [Example 758, (R)-2-amino-3-bromo-N-((6-bromopyridazin-3-yl)methyl)-N-(5,6,7,8-tetrahydro-[1,2,4]triazolo[1,5-a]pyridin-8-yl)quinoline-6-carboxamide] |
| 0.694 µM | 54 nM | Cc1c(Br)c(N)nc2ncc(C(=O)N(Cc3ccc(C(F)(F)F)cn3)[C@H](C)c3ncccn3)cc12 [Example 743, (R)-7-amino-6-bromo-5-methyl-N-(1-(pyrimidin-2-yl)ethyl)-N-((5-(trifluoromethyl)pyridin-2-yl)methyl)-1,8-naphthyridine-3-carboxamide] |
| 4.23 µM | 168 nM | Cc1cc2cc(C(=O)N(Cc3ccc(C(F)(F)F)cn3)Cc3ncccn3)c(F)cc2nc1N [Example 319, 2-amino-7-fluoro-3-methyl-N-(2-pyrimidinylmethyl)-N-((5-(trifluoromethyl)-2-pyridinyl)methyl)-6-quinolinecarboxamide] |
| 3.15 µM | 177 nM | Cc1cc2cc(C(=O)N(Cc3ccc(C#N)c(C)n3)[C@H](C)c3ncccn3)ccc2nc1N [Example 750, 2-amino-N-((5-cyano-6-methyl-2-pyridinyl)methyl)-3-methyl-N-((1R)-1-(2-pyrimidinyl)ethyl)-6-quinolinecarboxamide] |
| > 10 µM | 405 nM | Cc1cc2cc(C(=O)N(Cc3ccc(C(F)(F)F)cn3)Cc3ncc(Cl)cn3)ccc2nc1N [Example 339, 2-amino-N-((5-chloro-2-pyrimidinyl)methyl)-3-methyl-N-((5-(trifluoromethyl)-2-pyridinyl)methyl)-6-quinolinecarboxamide] |
| > 10 µM | 322 nM | COc1ccc(CN(C(=O)c2ccc3nc(N)c(C)cc3c2)[C@H](C)c2ncccn2)cn1 (single isomer, unassigned) [Example 786] |
| 3.55 µM | 239 nM | Cc1cc2cc(C(=O)N(Cc3ccc(C#N)nc3C)[C@H](C)c3ncccn3)ccc2nc1N (single isomer, unassigned) [Example 820] |
| 5.5 µM | 90 nM | Cc1nc(CN(C(=O)c2cnc3nc(N)c(I)cc3c2)[C@H](C)c2ncccn2)ccc1C#N [Example 840, (R)-7-amino-N-((5-cyano-6-methylpyridin-2-yl)methyl)-6-iodo-N-(1-(pyrimidin-2-yl)ethy1)-1,8-naphthyridine-3-carboxamide] |
| > 10 µM | 372 nM | C[C@H](c1ncccn1)N(Cc1cc2c(cn1)OCCC2)C(=O)c1ccc2nc(N)c(Br)cc2c1 [Example 777, (R)-2-amino-3-bromo-N-((3,4-dihydro-2H-pyrano[2,3-c]pyridin-6-yl)methyl)-N-(1-(pyrimidin-2-yl)ethyl)quinoline-6-carboxamide] |
